The test relates to midbrain DA (TH^+) neurons. Put plainly: Spontaneous dopaminergic (DA) cell death model in midbrain cultures. It counts as cell-based, Wistar rat. Conditions: chronic treatments for 10 days. On the procedure: Animals were treated in accordance with the Guide for the Care and Use of Laboratory Animals (National Research Council, 1996), European Directive 86/609, and the guidelines of the local institutional animal care and use committee. Cultures were prepared from the ventral mesencephalon of gestational age 15.5 Wistar rat embryos (Janvier Breeding Center, Le Genest St Isle, France). Dissociated cells in suspension obtained by mechanical trituration of midbrain tissue pieces were seeded at a density of 1.2-1.5 10^5 cells/ cm^2 onto tissue culture supports precoated with 1 mg/ml polyethylenimine diluted in borate buffer pH 8.3 as described (Michel PP, et al., J Neurochem. 1997 Oct;69(4):1499-507). The cultures were then maintained in N5 medium supplemented with 5 mM glucose, 5% horse serum, and 0.5% fetal calf serum, except for the first 3 days in vitro (DIV), when the concentration of fetal calf serum was 2.5% to favor initial maturation of the cultures (Guerreiro S, et al., Mol Pharmacol. 2008 Oct;74(4):980-9). They were fed daily by replacing 70% of the medium. […]
We used a model system in which DA cell loss was spontaneous. […] For the spontaneous dopaminergic cell death model, TH^+ neurons were counted while for the neuro-inflammation model, the number of microglial cells was evaluated. […]

`Nc1ncnc2c1ncn2[C@@H]1O[C@H](COP(=O)(O)OP(=O)(O)OC[C@H]2O[C@@H]([n+]3cccc(C(=O)[O-])c3)[C@H](O)[C@@H]2O)[C@@H](O)[C@H]1OP(=O)(O)O` [compound 1, 1-[(2R,3R,4S,5R)-5-[[[[(2R,3R,4R,5R)-5-(6-aminopurin-9-yl)-3-hydroxy-4-phosphonooxyoxolan-2-yl]methoxy-hydroxyphosphoryl]oxy-hydroxyphosphoryl]oxymethyl]-3,4-dihydroxyoxolan-2-yl]pyridin-1-ium-3-carboxylic acid] came in with an optimal neuroprotective concentrations of 30 µM. `CC(=O)OCOC(=O)c1ccc[n+]([C@@H]2O[C@H](COP(=O)(O)OP(=O)(OCOC(C)=O)OC[C@H]3O[C@@H](n4cnc5c(N)ncnc54)[C@H](OP(=O)(OCOC(C)=O)OCOC(C)=O)[C@@H]3O)[C@@H](O)[C@H]2O)c1` (stereo partly drawn) [compound 2, 1-((2R,3R,4S,5R)-5-((((((acetoxymethoxy)(((2R,3R,4R,5R)-5-(6-amino-9H-purin-9-yl)-4-((bis(acetoxymethoxy)phosphoryl)oxy)-3-hydroxytetrahydrofuran-2-yl)methoxy)phosphoryl)oxy)(hydroxy)phosphoryl)oxy)methyl)-3,4-dihydroxytetrahydrofuran-2-yl)-3-((acetoxymethoxy)carbonyl)pyridin-1-ium]: the optimal neuroprotective concentrations came out at 1 µM.

(Values after patent publication EP3323415A1, “TREATMENT OF NEURODEGENERATIVE DISEASES” (Institut du Cerveau et de la Moelle Épinière-ICM, priority 2016, dated 2018).)
